Experimental findings from patent publication US20130078203A1, “CAROTENOID SUNSCREEN” (Promar AS, priority 2010, published 2013) are described below.

The nature of data set [1]: UV/VIS absorption maxima by HPLC with diode array detector. Particulars: carotenoids dissolved in MeOH, HPLC on Zorbax C18 column. The data set is classed as physicochemical. The procedure: LC-MS analyses were performed on an Agilent Ion Trap SL mass spectrometer equipped with an Agilent 1100 series HPLC system. The HPLC system was equipped with a diode array detector (DAD) which recorded UV/VIS spectra in the range from 200-650 nm. Two HPLC protocols were used for the analysis in this work. A high throughput protocol for a fast quantitative determination of known carotenoids was used as follows; the carotenoids were eluted isocratically in MeOH for 5 min. A Zorbax rapid resolution SB RP C18 column with dimension 2.1*30 mm was used for the analyses. Column flow was kept at 0.4 mL/min and 10 μL extract was injected for each run. For detailed qualitative carotenoid separation a Zorbax SB RP C18 with dimension 2.1*150 mm was used. The carotenoids were eluted isocratically in MeOH/Acetonitrile (7:3) for 25 minutes. The column flow was 250 μl/min and 10 or 20 μL sample was injected depending on the concentration.

Data set [2] in a line: In vitro skin model irradiation absorption (integrating sphere transmission spectra, Vitro-skin). It is filed as physicochemical. The conditions noted are these: for absorption in the 375-490 nm range: Vitro-skin skin model; for absorption in the 375-490 nm range / effect of prolonged contact with the skin model on absorption: FIGS. 7A-C; for effect of prolonged contact with the skin model on absorption: 10, 15 or 20 minutes on Vitro-skin. The procedure:
The in vitro method of Springsteen was used (Springsteen et al., 1999, Analytica Chimica Acta, 380, p 155-164). Vitro-skin was used as the skin simulator and Miglyol (Miglyol 812F Neutraloel CHG.040906) or ethyl lactate (Sigma Aldrich) was used as the solvent. The tests were performed with a Varian Cary 300 Conc UV-Visible Spectrophotometer (with an integrating sphere). Sarcinaxanthin (prepared as described in Example 2) and the other carotenoids (Sigma Aldrich) were tested at various concentrations and immediately on application to the skin model or 10-20 minutes post-application.
FIGS. 7A-C show the irradiation absorption achieved by β-carotene (A), sarcinaxanthin (B) and zeaxanthin (C) at the concentrations indicated. The presented graphs also show the effects of the diluent on sarcinaxanthin absorption (FIG. 7B) and the effect of prolonged contact with the skin at 10, 15 or 20 minutes as indicated on the Figures. The results were compared to a conventional SPF 60 sun lotion and the use of diluent alone.

[3] abbreviates: side-by-side comparison, ethyl lactate as diluent, immediately vs after 15 minutes, FIGS. 8A and B.

Values joined by “and” are separate entries in the source; they are usually repeats but may differ in a detail not shown here. Equal values may be shown once. Read-outs that look alike come from different tables or passages of the source.

On to `CC1=CCC(C/C=C(\C)CO)C(C)(C)C1/C=C/C(C)=C/C=C/C(C)=C/C=C/C=C(C)/C=C/C=C(C)/C=C/C1C(C)=CCC(C/C=C(\C)CO)C1(C)C` (stereo not shown) [Decaprenoxanthin], for which the “λmax (nm) in the HPLC eluent” value in data set [1] is 414 nm and 438 nm and 467 nm.
On the same count and under the same terms, for `C=C1CCC(C/C=C(\C)CO[C@@H]2O[C@H](CO)[C@@H](O)[C@H](O)[C@H]2O)C(C)(C)C1/C=C/C(C)=C/C=C/C(C)=C/C=C/C=C(C)/C=C/C=C(C)/C=C/C1C(=C)CCC(C/C=C(\C)CO[C@@H]2O[C@H](CO)[C@@H](O)[C@H](O)[C@H]2O)C1(C)C` (stereo partly shown) [Sarcinaxanthin diglucoside] the value was 414 nm and 438 nm and 467 nm; for `C=C1CC[C@H](C/C=C(\C)CO)C(C)(C)[C@@H]1/C=C/C(C)=C/C=C/C(C)=C/C=C/C=C(C)/C=C/C=C(C)/C=C/[C@@H]1C(=C)CC[C@H](C/C=C(\C)CO[C@@H]2O[C@H](CO)[C@@H](O)[C@H](O)[C@H]2O)C1(C)C` [Sarcinaxanthin monoglucoside], 414 nm and 438 nm and 467 nm.
For `C=C1CC[C@H](C/C=C(\C)CO)C(C)(C)[C@@H]1/C=C/C(C)=C/C=C/C(C)=C/C=C/C=C(C)/C=C/C=C(C)/C=C/[C@@H]1C(=C)CC[C@H](C/C=C(\C)CO)C1(C)C` [sarcinaxanthin], the “absorption in the 375-490 nm range” value in data set [2] is “strong absorption”. The “stability of absorption after 15 minutes on the skin model” value (“stability of absorption after 15 minutes” for short) in data set [2] (setting [3]) is “absorption appears unaffected by the prolonged contact”. The “λmax (nm) in the HPLC eluent” value in data set [1] is 414 nm and 438 nm and 467 nm.
Take `CC1=C(/C=C/C(C)=C/C=C/C(C)=C/C=C/C=C(C)/C=C/C=C(C)/C=C/C2=C(C)C[C@@H](O)CC2(C)C)C(C)(C)C[C@H](O)C1` [zeaxanthin]: in data set [2], the “stability of absorption after 15 minutes” value is “unstable and lose most of their absorption properties in the relevant range”; the “effect of prolonged contact with the skin model on absorption” value is “loss of absorption”; the “absorption in the 375-490 nm range” value is “only modest absorption”.
Regarding `CC1=C(/C=C/C(C)=C/C=C/C(C)=C/C=C/C=C(C)/C=C/C=C(C)/C=C/C2=C(C)CCCC2(C)C)C(C)(C)CCC1` [β-carotene], in data set [2], the “effect of prolonged contact with the skin model on absorption” value is listed as “loss of absorption” and the “absorption in the 375-490 nm range” value was “only modest absorption”. The “stability of absorption after 15 minutes” value in data set [2] (setting [3]) is “unstable and lose most of their absorption properties in the relevant range”.
On to Lycopene, for which, in data set [1], the “λmax (nm) in the HPLC eluent” value is 445 nm and 470 nm and 501 nm.
